IC50 data for four compounds are collected here from patent US8309550B2, “Kinase inhibitors and their use as pharmaceutical agents” (Shanghai Genomics, Inc., priority 2011, dated 2012).

One assay concerns Eca-109 cells. Description: 72 h MTT cytotoxicity assay Eca-109. As to conditions: Homo sapiens; Eca-109, 72 hrs. Format: cell-based. From the text: (§1) MIT cytotoxicity assay. The compounds of the invention were subjected to a standard cellular proliferation assay using human cell lines. HeLa cells (Human cervix adenocarcinoma cell line, ATCC NO, CCL-2); A549 cells (Human lung carcinoma cells line, ATCC NO, CCL-185); U2OS cells (Human osteosarcoma cell line, ATCC NO, HTB-96); Eca-109 cells (Human esophageal carcinoma cell line); HepG2 (Human hepatocellular liver carcinoma cell line, ATCC NO, HB-8065); K562 cells (Human chronic myelogenous leukemia cell line, ATCC NO, CCL-243); SK-MEL-28 (Human malignant melanoma cell line, ATCC NO, HTB-72); Molt-4 (Human acute lymphoblastic leukemia cell line, ATCC NO, CRL-1582); H460 (Human large cell lung cancer cell line, ATCC NO, HTB-177); MDA-MB-231 (Human breast adenocarcinoma cell line, ATCC NO, HTB-26); MCF7 (Human breast adenocarcinoma cell line, ATCC NO, HTB-22); ACHN (Human renal cell adenocarcinoma cell line, ATCC NO, CRL-1611); PC-3M (Human prostate adenocarcinoma cell line, ATCC NO CRL-1435); HL60 (Human acute promyelocytic leukemia cell line, ATCC NO, CCL-240); THP-1 (Human acute monocytic leukemia, ATCC NO, TIB-202); Jurkat (Human acute T cell leukemia cell line, ATCC NO, CRL-2063); HCT-116 (Human colorectal carcinoma cell line, ATCC NO, CCL-247); HT-29 (Human colorectal adenocarcinoma cell line, ATCC NO, HTB-38™); WI-38 (Human normal lung cell line, ATCC NO, CCL-75); MRC-5 (Human normal lung cell line, ATCC NO, CCL-171).
(§2) HepG2, MDA-MB-231, WI-38 and MRC-5 cells were obtained from Shanghai Institute of Cell Biology, Chinese Academy of Sciences (Shanghai 200031, China). A549, HeLa, K562, MCF7, ACHN, H460, U2OS, Eca-109, MCF7, HL60, THP-1, Jurkat, HCT-116, HT-29, PC-3M, SK-MEL-28, Molt-4, H460 and […] cells were purchased from ATCC (American Type Culture Collection, USA).
(§3) Standard 72 h MTT (thiazolye blue; 3-[4,5-dimethylthiazol-2-yl]-2,5-diphenyltetrazolium bromide) assays were performed. Briefly, the cell lines used in this study were recovered and cultured according to the conditions recommended. 4000 cells per well were seeded into 96-well plates according to doubling time and incubated overnight at 37° C. Compounds were prepared in DMSO and a ½ dilution series in 100 μl cell culture media, added to cells (in duplicates) with the final DMSO concentration of 0.025%, and incubated for 72 hrs at 37° C. MTT solution (5 mg/ml) was added at 10 μl per well and incubated in the dark at 37° C. for 4 hr. Culture medium and MTT solution was removed. MTT dye was solubilised with 100 μl per well of DMSO with agitation. Absorbance was read at 562 nm and data analyzed using Sigmoid curve-fitting software Origin 6.0 (MicroCal, LLC, USA) to determine IC50 value.

The subject of a further assay is A549 cells. The assay can be described thus: 72 h MTT cytotoxicity assay A549. The assay is classed as cell-based. As to conditions: Homo sapiens; A549, 72 hrs.
Description: as §1, §2, §3
(Tetrazolium assays rely on reduction of a dye to a coloured formazan, in cell work by metabolically active cells.)

A further assay deals with H460-luc. The assay can be described thus: 72 h MTT cytotoxicity assay H460-luc. Format: cell-based. As to conditions: Homo sapiens, NCI-H460-Luc; H460-luc, 72 hrs; read-out: Cytotoxicity, MTT 72 hrs, IC50 H460-luc.
Description: as §1, §2, §3

A further assay relates to HeLa cells. Description: 72 h MTT cytotoxicity assay HeLa. The conditions noted are these: Homo sapiens. Format: cell-based.
Description: as §1, §2, §3

The test system of a further assay is ACHN-luc. Description: 72 h MTT cell viability ACHN-luc. The assay is classed as cell-based. As to conditions: Homo sapiens.
Description: as §1, §2, §3

For a further assay, the system named is HepG2. The assay can be described thus: 72 h MTT cytotoxicity assay HepG2. The assay is classed as cell-based. As to conditions: Homo sapiens; HepG2, 72 hrs.
Description: as §1, §2, §3

The test system of a further assay is WI-38. Description: 72 h MTT cell viability WI-38 (normal lung). Format: cell-based. The conditions noted are these: Homo sapiens; WI-38, normal lung cell line.
Description: as §1, §2, §3

The target of a further assay is T1, CDK1/cyclinB (Homo sapiens, UniProt P06493).
T1 construct: purchased Invitrogen PV3292
The assay can be described thus: Z'-LYTE kinase assay CDK1/cyclinB. As to conditions: read-out: Kinase inhibition, IC50 CDK1B. The assay is classed as biochemical. The method, then:
(§4) Kinase assays. The compounds from the example above were tested for their ability to inhibit kinases. Recombinant human CDK2/cyclinA (PV3267), CDK1/cyclinB (PV3292), CDK5/p35 (PV3000) and Aurora A (PV3612) were purchased from Invitrogen (Carlsbad, Calif., USA). Kinase dosage and Z′-LYTE™ substrate for each kinase assay is as follows: CDK2/cyclinA-8 ng/reaction, Ser/Thr 12 Peptide; CDK1/cyclinB-0.8 ng/reaction, Ser/Thr 12 Peptide, CDK5/p35-0.8 ng/reaction, Ser/Thr 12 Peptide, and Aurora A-16 ng/reaction, Ser/Thr 1 Peptide. All enzymatic assays were performed using Z′-LYTE™ Kinase Assay Kits and were carried out following protocols provided by Invitrogen. To prepare stock solutions, compounds were dissolved at 10 mM in 100% DMSO and stored at 4° C. in amber glass vials. Enzyme reactions were initiated by adding recombinant enzyme and Z′-LYTE™ Ser/Thr peptide substrate and ATP mixture to 384-well plates containing diluted test compounds. Kinase and corresponding peptide substrate were incubated for 1 hr at room temperature in the presence of varying amounts of test compound with reaction buffer (20 μM ATP, […] [pH 7.5], 5 mM MgCl2, 0.5 mM EGTA, 0.005% Brij-35). Development buffer was added and incubated for another one hour at room temperature. Reactions were terminated by addition of stop buffer, and fluorescence emission intensity ratio 445 nm/520 nm (excited at 400 nm) was quantified by VICTOR-3 Multilabel Reader (Perkin-Elmer, Waltham, Mass., USA). Phosphorylation was calculated from the emission ratio. IC50 was determined using Sigmoid curve-fitting software Origin 6.0 (MicroCal, LLC, Northampton, Mass., USA).

The test system of the next assay is Molt-4-luc. The assay can be described thus: 72 h MTT cytotoxicity assay Molt-4-luc. The assay is classed as cell-based. As to conditions: Homo sapiens.
Description: as §1, §2, §3

The test system of the next assay is MDA-MB-231-luc. Description: 72 h MTT cell viability MDA-MB-231-luc. The assay is classed as cell-based. As to conditions: Homo sapiens.
Description: as §1, §2, §3

The test system of a further assay is U2OS cells. The assay can be described thus: 72 h MTT cytotoxicity assay U2OS. The assay is classed as cell-based. The conditions noted are these: Homo sapiens.
Description: as §1, §2, §3

The next assay concerns SK-MEL-28-luc. The assay can be described thus: 72 h MTT cytotoxicity assay SK-MEL-28-luc. Format: cell-based. The conditions noted are these: Homo sapiens.
Description: as §1, §2, §3

In another assay the test system is K562 cells. Description: 72 h MTT cytotoxicity assay K562. As to conditions: Homo sapiens; K562, 72 hrs. The assay is classed as cell-based.
Description: as §1, §2, §3

The target in the next assay is T2, Aurora A (Homo sapiens, UniProt O14965).
T2 construct: purchased Invitrogen PV3612
T2 sequence (O14965 1-403): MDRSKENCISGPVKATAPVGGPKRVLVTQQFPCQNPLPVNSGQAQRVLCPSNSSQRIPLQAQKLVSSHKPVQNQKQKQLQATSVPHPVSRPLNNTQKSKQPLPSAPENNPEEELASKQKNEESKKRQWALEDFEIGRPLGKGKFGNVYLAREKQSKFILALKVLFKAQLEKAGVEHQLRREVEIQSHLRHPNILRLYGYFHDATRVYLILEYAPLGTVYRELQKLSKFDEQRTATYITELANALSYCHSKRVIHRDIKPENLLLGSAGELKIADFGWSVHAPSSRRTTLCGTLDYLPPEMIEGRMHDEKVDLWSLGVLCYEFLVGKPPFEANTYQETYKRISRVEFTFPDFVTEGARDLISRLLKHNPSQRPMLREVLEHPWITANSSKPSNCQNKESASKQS
Description: Z'-LYTE kinase assay Aurora A. The assay is classed as biochemical. As to conditions: read-out: Kinase inhibition, IC50 Aurora A. The method, then:
as §4

A further assay has as its target T3, CDK2/cyclinA (Homo sapiens, UniProt P24941).
T3 construct: purchased Invitrogen PV3267
The assay can be described thus: Z'-LYTE kinase assay CDK2/cyclinA. The assay is classed as biochemical. As to conditions: read-out: Kinase inhibition, IC50 CDK2A. The method, then: as §4

The next assay concerns the target Aurora B (Homo sapiens, UniProt Q96GD4). Description: Kinase assay Aurora B (Table I). The conditions noted are these: read-out: Kinase inhibition, IC50 Aurora B. Format: biochemical. The method, then: [The source words this procedure for another target and reports this target under the same test.] as §4
The next assay relates to MCF7. Description: 72 h MTT cytotoxicity assay MCF7. Format: cell-based. The conditions noted are these: Homo sapiens; MCF7, 72 hrs.
Description: as §1, §2, §3

The next assay addresses T4, CDK5/p35 (Homo sapiens, UniProt Q00535).
T4 construct: purchased Invitrogen PV3000
Description: Z'-LYTE kinase assay CDK5/p35. Format: biochemical. The conditions noted are these: read-out: Kinase inhibition, IC50 CDK5/p35. The method, then: as §4

Another assay deals with CDK9T1 (Homo sapiens, UniProt P50750). The assay can be described thus: Kinase assay CDK9T1 (Table I). The assay is classed as biochemical. The conditions noted are these: read-out: Kinase inhibition, IC50 CDK9T1. The method, then:
[The source words this procedure for another target and reports this target under the same test.] as §4

SMILES strings stand for the structures.

Chain of Aurora B (Q96GD4 whole entry): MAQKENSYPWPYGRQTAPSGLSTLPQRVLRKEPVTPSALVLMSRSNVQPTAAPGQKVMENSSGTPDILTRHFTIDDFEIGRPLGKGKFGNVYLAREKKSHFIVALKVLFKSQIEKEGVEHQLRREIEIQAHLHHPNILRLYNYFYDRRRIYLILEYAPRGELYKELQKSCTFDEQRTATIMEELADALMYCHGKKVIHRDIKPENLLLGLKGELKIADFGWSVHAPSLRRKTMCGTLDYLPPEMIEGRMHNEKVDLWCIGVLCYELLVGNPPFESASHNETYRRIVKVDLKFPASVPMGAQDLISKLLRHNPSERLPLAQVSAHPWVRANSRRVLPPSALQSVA
T4 sequence (Q00535 whole entry): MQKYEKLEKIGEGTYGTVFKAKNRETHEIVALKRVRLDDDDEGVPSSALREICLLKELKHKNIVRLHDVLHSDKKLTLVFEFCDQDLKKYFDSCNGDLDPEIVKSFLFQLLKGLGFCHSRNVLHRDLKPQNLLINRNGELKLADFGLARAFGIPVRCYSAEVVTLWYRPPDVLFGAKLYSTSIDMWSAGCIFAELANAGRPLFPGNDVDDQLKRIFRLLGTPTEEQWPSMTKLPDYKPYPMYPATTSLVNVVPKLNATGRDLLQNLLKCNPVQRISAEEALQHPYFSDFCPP
T4 sequence (Q15078 whole entry partner): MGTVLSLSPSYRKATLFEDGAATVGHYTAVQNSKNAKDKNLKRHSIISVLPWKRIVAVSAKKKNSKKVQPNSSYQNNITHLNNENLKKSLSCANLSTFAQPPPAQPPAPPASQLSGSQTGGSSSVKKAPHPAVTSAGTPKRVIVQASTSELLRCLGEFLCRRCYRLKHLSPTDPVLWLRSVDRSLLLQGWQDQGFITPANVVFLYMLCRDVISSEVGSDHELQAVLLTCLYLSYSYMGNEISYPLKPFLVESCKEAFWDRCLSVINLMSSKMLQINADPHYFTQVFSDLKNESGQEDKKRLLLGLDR
T1 sequence (P06493 whole entry): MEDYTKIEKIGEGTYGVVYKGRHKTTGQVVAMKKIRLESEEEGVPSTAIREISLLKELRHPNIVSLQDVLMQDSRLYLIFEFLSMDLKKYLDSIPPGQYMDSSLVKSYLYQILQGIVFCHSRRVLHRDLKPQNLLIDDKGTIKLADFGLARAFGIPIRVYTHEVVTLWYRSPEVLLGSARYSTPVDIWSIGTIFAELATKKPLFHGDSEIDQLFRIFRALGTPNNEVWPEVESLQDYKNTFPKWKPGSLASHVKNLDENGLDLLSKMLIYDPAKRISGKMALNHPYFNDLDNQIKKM
T1 sequence (P14635 whole entry partner): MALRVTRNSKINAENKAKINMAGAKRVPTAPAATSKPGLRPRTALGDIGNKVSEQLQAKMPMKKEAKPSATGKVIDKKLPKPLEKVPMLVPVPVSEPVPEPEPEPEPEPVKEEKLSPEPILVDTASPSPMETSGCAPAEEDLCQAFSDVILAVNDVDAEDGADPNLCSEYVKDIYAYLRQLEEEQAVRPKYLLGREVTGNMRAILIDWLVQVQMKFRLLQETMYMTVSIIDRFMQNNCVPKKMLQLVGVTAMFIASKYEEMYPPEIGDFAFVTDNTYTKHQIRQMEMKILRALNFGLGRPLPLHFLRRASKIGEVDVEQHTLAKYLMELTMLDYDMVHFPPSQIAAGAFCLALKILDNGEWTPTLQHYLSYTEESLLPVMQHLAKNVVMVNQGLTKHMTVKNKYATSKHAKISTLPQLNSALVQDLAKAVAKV
Chain of CDK9T1 (P50750 whole entry): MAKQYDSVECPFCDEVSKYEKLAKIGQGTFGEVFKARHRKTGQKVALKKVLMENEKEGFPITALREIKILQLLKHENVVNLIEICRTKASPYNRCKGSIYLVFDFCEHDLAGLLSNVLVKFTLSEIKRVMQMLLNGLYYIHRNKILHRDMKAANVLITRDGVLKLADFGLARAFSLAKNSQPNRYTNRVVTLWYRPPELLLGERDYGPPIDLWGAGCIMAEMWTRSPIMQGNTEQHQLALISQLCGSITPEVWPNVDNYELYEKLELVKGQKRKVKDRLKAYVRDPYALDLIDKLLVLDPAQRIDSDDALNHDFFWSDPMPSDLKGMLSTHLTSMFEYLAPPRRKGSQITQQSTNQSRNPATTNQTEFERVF
Chain of CDK9T1 (O60563 whole entry partner): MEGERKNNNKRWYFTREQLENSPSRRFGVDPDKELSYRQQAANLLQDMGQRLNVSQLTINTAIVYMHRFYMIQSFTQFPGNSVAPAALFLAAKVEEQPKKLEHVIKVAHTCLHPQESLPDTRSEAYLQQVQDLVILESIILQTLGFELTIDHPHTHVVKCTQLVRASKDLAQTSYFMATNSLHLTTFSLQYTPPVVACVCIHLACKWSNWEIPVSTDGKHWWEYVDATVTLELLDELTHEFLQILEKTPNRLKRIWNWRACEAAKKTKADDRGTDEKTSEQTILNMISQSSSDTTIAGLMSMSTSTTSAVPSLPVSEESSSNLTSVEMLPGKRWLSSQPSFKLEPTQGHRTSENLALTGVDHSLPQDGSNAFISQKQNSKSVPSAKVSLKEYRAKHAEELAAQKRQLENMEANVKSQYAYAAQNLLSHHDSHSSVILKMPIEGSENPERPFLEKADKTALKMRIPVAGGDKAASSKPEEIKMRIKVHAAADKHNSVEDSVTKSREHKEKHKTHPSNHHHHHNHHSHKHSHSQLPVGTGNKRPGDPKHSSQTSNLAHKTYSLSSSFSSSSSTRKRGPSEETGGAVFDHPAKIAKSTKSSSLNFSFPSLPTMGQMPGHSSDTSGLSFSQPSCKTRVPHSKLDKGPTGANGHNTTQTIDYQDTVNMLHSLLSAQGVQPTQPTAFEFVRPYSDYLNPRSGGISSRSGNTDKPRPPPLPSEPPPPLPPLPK

On to `CCn1cc(-c2ccnc(Nc3cccc(C(N)=O)c3)n2)c2cccnc21` [Compound 19, 3-(4-(1-Ethyl-1H-pyrrolo[2,3-b]pyridin-3-yl)pyrimidin-2-ylamino)benzamide], for which the IC50 in the assay with Eca-109 cells was over 10 µM; with A549 cells, 3.43 µM; with H460-luc, 3.63 µM; in the assay with HeLa cells it was 4.33 µM; in the assay on ACHN-luc it was 3.46 µM; with HepG2, 1.41 µM. Besides, the IC50 is over 10 µM with WI-38; 1.34 µM on CDK1/cyclinB; 6.66 µM with Molt-4-luc; 8.51 µM in the assay on MDA-MB-231-luc; 9.54 µM in the assay with U2OS cells; over 10 µM with SK-MEL-28-luc. Further, the IC50 in the assay on K562 cells amounted to 15.4 µM; on Aurora A it was 0.29 µM; at CDK2/cyclinA it was 0.272 µM; on Aurora B, 1.44 µM; with MCF7, 3.96 µM; on CDK5/p35 it was 3.18 µM. The IC50 on CDK9T1 is 0.11 µM.

In the case of `Cn1cc(-c2ccnc(Nc3ccc(O)cc3)n2)c2ccccc21` [Compound 2, 4-(4-(1-Methyl-1H-indol-3-yl)pyrimidin-2-ylamino)phenol], the IC50 with Eca-109 cells is 14.5 µM; with A549 cells, 8.29 µM; in the assay on H460-luc, 6.39 µM; in the assay on HeLa cells, 4.93 µM; in the assay on ACHN-luc, 23.4 µM; in the assay on HepG2, 5.97 µM. Further, the IC50 was over 10 µM with WI-38; 0.742 µM at CDK1/cyclinB; 6.3 µM with Molt-4-luc; 6.16 µM in the assay on MDA-MB-231-luc; 7.33 µM in the assay on U2OS cells; 6.37 µM in the assay with SK-MEL-28-luc. The IC50 is 6.17 µM in the assay with K562 cells; 0.15 µM on Aurora A; 0.305 µM at CDK2/cyclinA; 0.2 µM at Aurora B; 9.56 µM in the assay with MCF7; 0.95 µM on CDK5/p35. On CDK9T1, the IC50 was 0.043 µM.

Regarding `CCCn1cc(-c2ccnc(Nc3cccc([N+](=O)[O-])c3)n2)c2cccnc21` [Compound 17, N-(3-Nitrophenyl)-4-(1-propyl-1H-pyrrolo[2,3-b]pyridin-3-yl)pyrimidin-2-amine], the IC50 in the assay on Eca-109 cells amounted to 6.06 µM; in the assay on A549 cells, 2.19 µM; in the assay on H460-luc, 2.49 µM; with HeLa cells it was 4.22 µM; in the assay on ACHN-luc, 2.45 µM; in the assay on HepG2, 1.19 µM. Moreover, the IC50 was over 10 µM with WI-38; 7.64 µM on CDK1/cyclinB; 6.29 µM in the assay with Molt-4-luc; 2.63 µM in the assay on MDA-MB-231-luc; 4.91 µM in the assay on U2OS cells; 5.48 µM in the assay with SK-MEL-28-luc. Further, the IC50 was 2.31 µM in the assay with K562 cells; 1.16 µM on Aurora A; 0.463 µM on CDK2/cyclinA; over 10 µM on Aurora B; 4.93 µM with MCF7; over 10 µM at CDK5/p35. Moreover, at CDK9T1, the IC50 amounted to 0.16 µM.

Consider `Cn1cc(-c2ccnc(Nc3cccc(O)c3)n2)c2ccccc21` [Compound 1, 3-(4-(1-Methyl-1H-indol-3-yl)pyrimidin-2-ylamino)phenol], for which the IC50 in the assay with Eca-109 cells worked out at 14.2 µM; with A549 cells it was 6.03 µM; in the assay on H460-luc it was 6.19 µM; in the assay with HeLa cells it was 4.7 µM; in the assay on ACHN-luc, 9.82 µM; with HepG2, 4.55 µM. The IC50 with WI-38 was over 10 µM; at CDK1/cyclinB, 2.5 µM; with Molt-4-luc, 6.4 µM; in the assay on MDA-MB-231-luc it was 6.33 µM; in the assay with U2OS cells, 5.99 µM; with SK-MEL-28-luc, 6.47 µM. Moreover, the IC50 in the assay with K562 cells stood at 4.78 µM; at Aurora A, 0.28 µM; at CDK2/cyclinA, 0.543 µM; at Aurora B it was 0.34 µM; in the assay on MCF7, 10.1 µM; at CDK5/p35 it was 2.61 µM.
